Patent US5432192A, “Tricyclic compounds and method for treating allergic diseases” (Hokuriku Seiyaku Co., Ltd., priority 1991, dated 1995)

Key:
[1] = biological target: T1, Acetylcholine dose-response in isolated ileum from male Hartley guinea-pigs (Cavia porcellus, UniProt H0W1Z3); assay: Anti-acetylcholinergic effect, isolated guinea-pig ileum (KB by Furchgott method); parameters: species or system guinea-pig (male Hartley); details: dissociation constant KB (M) of antagonist vs acetylcholine; test drug applied 30 minutes before; 28° C.; read-out: -Log KB (anti-acetylcholinergic effect) (converted)
T1 construct: The ileum was isolated from male Hartley guinea-pigs; from tissue; host or cells: isolated ileum of male Hartley guinea-pigs
Protocol: (§1) The ileum was isolated from male Hartley guinea-pigs (5 to 8 weeks of age). The preparation was suspended in a bath containing Locke-Ringer nutritional solution (NaCl: 154 mM, KCl: 5.6 mM, CaCl2.H2 O: 2.2 mM, MgCl2. 6H2 O: 2.1 mM, NaHCO3 : 5.9 mM, glucose: 2.8 mM) bubbled with 95% O2 +5% CO2 mixed gas at 28° C., and then 0.5 g weight was loaded and tention through isotonic transducer was recorded using a recorder. Acetylcholine was cumulatively applied 3 times at intervals of 40 minutes, and the dose-response curve of the third experiment, for which a test drug was applied 30 minutes before the experiment, was compared with the result of the second experiment as a reference. Dissociation constants KB (M) of antagonists were calculated according to the method of Furchgott. From the results shown in Table 3, it is apparent that the compounds of the present invention have almost no anti-acetylcholinergic activities.

[2] = system: PCA reaction in passively sensitized male Wistar rats; assay: Anti-allergic effect (Inhibitory effect on PCA reaction); type: in vivo, rat (male Wistar); details: Rattus norvegicus, po, 1 h, 1 mg/kg orally, antigen challenge after one hour, read-out: Inhibition rate (%) of PCA reaction
Protocol: 0.1 ml of anti-dinitrophenylated ascaris extract (DNP-As) rat IgE serum was injected intracutaneously to the back of male Wistar rats (6 weeks of age). After 48 hours, a solution of 1% Evans blue in physiological saline containing 1 mg of an antigen (DNP-As) was administered from caudal vein. After 30 minutes, the animals were exsanguinated and dyes in blue spots were extracted with 1N KOH, and then the amounts of the dyes were measured by absorbance at 620 nm. After the passively sensitized rats described above were fasted for 16 to 18 hours, 1 mg/kg of each test compound was administered orally to the rats, and then the rats were challenged with antigen after one hour. The amounts of dyes in the test animals were compared with those of the control to obtain the inhibition rate (%) of PCA reaction.

[3] = biological target: T2, Histamine dose-response in isolated ileum from male Hartley guinea-pigs (Cavia porcellus, UniProt P31389); assay: Anti-histaminic effect, isolated guinea-pig ileum (KB by Furchgott method); parameters: species or system guinea-pig (male Hartley); details: dissociation constant KB (M) of antagonist vs histamine; test drug applied 30 minutes before; 28° C.; read-out: -Log KB (anti-histaminic effect) (converted)
T2 construct: The ileum was isolated from male Hartley guinea-pigs; from tissue; host or cells: isolated ileum of male Hartley guinea-pigs
Protocol: as §1, with “CaCl2 .2H2” for “CaCl2.H2”, “MgCl2.6H2” for “MgCl2. 6H2”, “Histamine” for “Acetylcholine”, “1,” for “3,”, “excellent anti-histaminic” for “almost no anti-acetylcholinergic”

[4] = known adverse reactions, background art; cited from earlier work

T1 sequence (H0W1Z3 1-590): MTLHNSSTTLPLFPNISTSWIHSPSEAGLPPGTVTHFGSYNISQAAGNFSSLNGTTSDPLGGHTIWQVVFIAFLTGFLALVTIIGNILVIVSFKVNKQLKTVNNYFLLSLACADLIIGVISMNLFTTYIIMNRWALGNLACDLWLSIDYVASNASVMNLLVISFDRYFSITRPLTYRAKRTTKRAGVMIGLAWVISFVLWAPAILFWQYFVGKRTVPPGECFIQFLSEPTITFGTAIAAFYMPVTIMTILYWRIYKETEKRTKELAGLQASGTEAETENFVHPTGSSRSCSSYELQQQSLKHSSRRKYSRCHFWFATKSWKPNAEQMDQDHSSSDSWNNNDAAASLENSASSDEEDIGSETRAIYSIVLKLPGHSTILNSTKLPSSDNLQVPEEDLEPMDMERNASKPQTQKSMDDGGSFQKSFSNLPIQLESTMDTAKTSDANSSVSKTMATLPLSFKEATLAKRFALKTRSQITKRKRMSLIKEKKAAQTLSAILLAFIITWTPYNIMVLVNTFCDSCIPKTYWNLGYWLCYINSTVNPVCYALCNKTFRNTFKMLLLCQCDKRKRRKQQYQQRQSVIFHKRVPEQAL
T2 sequence (P31389 whole entry): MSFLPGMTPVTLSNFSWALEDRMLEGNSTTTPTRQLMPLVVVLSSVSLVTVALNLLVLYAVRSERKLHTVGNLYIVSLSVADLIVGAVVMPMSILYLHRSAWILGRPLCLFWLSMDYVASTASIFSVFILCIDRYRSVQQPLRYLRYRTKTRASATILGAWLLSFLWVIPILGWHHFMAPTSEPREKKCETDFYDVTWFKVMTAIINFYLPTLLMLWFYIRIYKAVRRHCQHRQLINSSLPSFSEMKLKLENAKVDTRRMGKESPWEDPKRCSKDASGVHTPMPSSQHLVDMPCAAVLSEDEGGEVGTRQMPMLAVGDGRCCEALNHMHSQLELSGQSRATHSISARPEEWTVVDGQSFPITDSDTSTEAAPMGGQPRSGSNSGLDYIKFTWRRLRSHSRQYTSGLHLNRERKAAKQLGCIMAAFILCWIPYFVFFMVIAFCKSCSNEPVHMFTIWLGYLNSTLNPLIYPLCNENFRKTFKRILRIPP

Kb [1] [M] | Kb [3] [M] | Compound | inhibition at 1 mg/kg [2] [%] | adverse reactions [4]
1.51e-05 | 6.92e-09 | CN(CCC=C1c2ccccc2C=Cc2ccccc21)CCC(=O)O [Example 14, 3-[N-[3-(5H-Dibenzo[a,d]cyclohepten-5-ylidene)propyl]-N-methylamino]propionic Acid] | 72 | –
2.57e-06 | 4.27e-09 | CN(CCC=C1c2ccccc2C=Cc2ccccc21)CCCC(=O)O [Example 15, 4-[N-[3-(5H-Dibenzo[a,d]cyclohepten-5-ylidene)propyl]-N-methylamino]butyricAcid] | – | –
1.26e-05 | 3.16e-08 | CN(CCC=C1c2ccccc2C=Cc2ccccc21)CC(=O)O [Example 16, [N-[3-(5H-Dibenzo[a,d]cyclohepten-5-ylidene)propyl]-N-methylamino]acetic Acid] | – | –
9.12e-07 | 6.17e-09 | CN(CCC=C1c2ccccc2C=Cc2ccccc21)CCCCC(=O)O [Example 17, 5-[N-[3-(5H-Dibenzo[a,d]cyclohepten-5-ylidene)propyl]-N-methylamino]valericAcid] | 72 | –
5.5e-07 | 1.2e-08 | CN(CCC=C1c2ccccc2C=Cc2ccccc21)CCCCCC(=O)O [Example 18, 6-[N-[3-(5H-Dibenzo[a,d]cyclohepten-5-ylidene)propyl]-N-methylamino]hexanoic Acid] | 50 | –
4.9e-05 | 1.55e-08 | CN(CCC=C1c2ccccc2COc2ccccc21)CC(=O)O [Example 19, [N-[3-(Dibenz[b,e]oxepin-11(6H)-ylidene)propyl]-N-methylamino]acetic Acid] | – | –
7.08e-06 | 3.09e-09 | CN(CCC=C1c2ccccc2COc2ccccc21)CCC(=O)O [Example 20, 3-[N-[3-(Dibenz[b,e]oxepin-11(6H)-ylidene)propyl]-N-methylamino]propionic Acid] | 69 | –
7.24e-06 | 3.47e-09 | CN(CCC=C1c2ccccc2COc2ccccc21)CCCC(=O)O [Example 21, 4-[N-[3-(Dibenz[b,e]oxepin-11(6H)-ylidene)propyl]-N-methylamino]butyric Acid] | – | –
1e-05 | 4.37e-09 | CN(CCC=C1c2ccccc2COc2ccccc21)CCCCC(=O)O [Example 22, 5-[N-[3-(Dibenz[b,e]oxepin-11(6H)-ylidene)propyl]-N-methylamino]valeric Acid] | 62 | –
3.16e-06 | 7.76e-09 | CN(CCC=C1c2ccccc2COc2ccccc21)CCCCCC(=O)O [Example 23, 6-[N-[3-(Dibenz[b,e]oxepin-11(6H)-ylidene)propyl]-N-methylamino]hexanoic Acid] | – | –

Compound | Kb [1] [M] | Kb [3] [M] | inhibition at 1 mg/kg [2] [%] | adverse reactions [4]
CN(C)CCC=C1c2ccccc2C=Cc2ccccc21 [cyclobenzaprine, Cyclobenzaprine, reference compound] | 7.59e-09 | – | 14 | sleepiness, dizziness, fatigue, thirst, nausea, constipation, and dyspepsia
CN(C)CCC=C1c2ccccc2COc2ccccc21 [doxepin, Doxepin, reference compound] | 5.89e-08 | – | 21 | sleepiness, thirst, and constipations
